Laboratory results: patent publication US20050014787A1, “5-amidino-2-hydroxybenzenesulfonamide derivatives medicinal compoistions containing the same medicinal use thereof and intermediates in the production thereof” (priority 2001, published 2005)

Experiments:
[1] = molecular target: T1, human thrombin (Homo sapiens, UniProt P00734); experiment: Measurement of inhibitory activity for thrombin (S-2238 chromogenic substrate); assay type: biochemical; details: S-2238 substrate, pH 8.4, 10 minutes at 37° C., absorbance 405 nm
T1 construct: human thrombin (Sigma Chemical Company); purchased Sigma Chemical Company
Method: Measurement of inhibitory activity for thrombin
(§1) 2.5 μL of a dimethylsulfoxide solution of a test compound, 187.5 μL of 100 mM tris-200 mM NaCl buffer (pH 8.4) and 50 μL of 1 mM S-2238 (Daiichi Pure Chemicals) aqueous solution were poured into 96 well microplate. Then 10 μL of 2.0 U/mL human thrombin (Sigma Chemical Company) in gelatin-glycine buffer was added and the mixture was incubated for 10 minutes at 37° C. The reaction was terminated with the addition of 50 μL of 60% acetic acid and absorbance (405 nm) was measured by a microplate reader (SPECTRAmax250, Molecular Devices).
(§2) The group with 2.5 μL of the dimethylsulfoxide solution instead of the test compound solution was defined as the control, and the group with 10 μL of the gelatin-glycine buffer solution instead of human thrombin was defined as the blank. The concentration of a test compound that inhibited the absorbance of control by 50% (IC50) was obtained, and this value was used as the index of inhibitory activity for thrombin.

[2] = molecular target: T2, human activated blood coagulation factor X (Homo sapiens, UniProt P00742); experiment: Measurement of inhibitory activity for activated blood coagulation factor X (S-2222 chromogenic substrate); assay type: biochemical; details: S-2222 substrate, pH 8.4, 10 minutes at 37° C., absorbance 405 nm
T2 construct: purchased Calbiochem
T2 sequence (P00742 235-488 limits assumed): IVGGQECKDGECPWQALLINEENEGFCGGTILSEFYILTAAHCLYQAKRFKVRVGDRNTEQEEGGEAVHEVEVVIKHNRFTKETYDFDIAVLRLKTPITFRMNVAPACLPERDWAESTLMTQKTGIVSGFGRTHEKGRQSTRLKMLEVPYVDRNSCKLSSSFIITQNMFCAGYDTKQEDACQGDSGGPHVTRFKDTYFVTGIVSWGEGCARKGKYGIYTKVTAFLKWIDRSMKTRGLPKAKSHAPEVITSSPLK
T2 sequence (P00742 41-179 partner limits assumed): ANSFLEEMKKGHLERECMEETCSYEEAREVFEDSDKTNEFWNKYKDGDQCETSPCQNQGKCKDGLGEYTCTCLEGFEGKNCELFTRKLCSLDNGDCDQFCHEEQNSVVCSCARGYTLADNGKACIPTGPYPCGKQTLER
Method: Measurement of inhibitory activity for activated blood coagulation factor X
as §1, with “S-2222” for “S-2238”, “0.6” for “2.0”, “activated blood coagulation factor X (Calbiochem)” for “thrombin (Sigma Chemical Company)”
as §2, with “activated blood coagulation factor X” for “thrombin”, “activated blood coagulation factor X. Results were shown as Table 1.” for “thrombin.”

| IC50 [1] [nM] | IC50 [2] [nM] | SMILES |
| --- | --- | --- |
| 27000 | 51 | CC(C)c1ccc(CCN(CC(=O)N2CCOCC2)S(=O)(=O)c2cc(C(=N)N)ccc2O)cc1 [Compound 14, 5-Carbamimidoyl-2-hydroxy-N-[2-(4-isopropylphenyl)ethyl]-N-(2-morpholin-4-yl-2-oxoethyl)benzenesulfonamide] |
| – | 3.8 | N=C(N)c1ccc(O)c(S(=O)(=O)NCCc2ccc(-c3ccccc3S(N)(=O)=O)cc2)c1 [Compound 15, 5-Carbamimidoyl-2-hydroxy-N-[2-(2′-sulfamoylbiphenyl-4-yl)-ethyl]benzenesulfnamide] |
| 26000 | 160 | CC(C)c1ccc(CCN(C)S(=O)(=O)c2cc(C(=N)N)ccc2O)cc1 [Compound 17, 5-Carbamimidoyl-2-hydroxy-N-[2-(4-isopropylphenyl)ethyl]-N-methylbenzenesulfonamide] |
